Key:
[1] = molecular target: Voltage-gated L-type calcium channel (Homo sapiens, UniProt Q13936+Q13698+Q01668+O60840); test: Displacement of [3H]PN-200110 from voltage-dependent L-type calcium channel (unknown origin) by scintillation counting method
[2] = molecular target: Metabotropic glutamate receptor 5 (Rattus norvegicus) (UniProt P31424); test: Displacement of [3H]MPEP from rat brain mGluR5 expressed in CHO cells by scintillation counting method; format: cell-based
[3] = molecular target: T1, ATP-dependent translocase ABCB1 (Homo sapiens, UniProt P08183); test: Inhibition of MDR-1 in human Caco-2 cells after 30 mins by calcein-AM dye based fluorescence assay; format: cell-based
[4] = molecular target: MDR-1 (P-glycoprotein, ABCB1) (Homo sapiens, UniProt P08183); test: (§1) Inhibition of MDR-1 in human Caco-2 cells at 10 uM after 30 mins by calcein-AM dye based fluorescence assay relative to cyclosporin; format: cell-based; conditions: Caco-2 cells, probe calcein-AM
[5] = molecular target: T1, ATP-dependent translocase ABCB1; test: as §1; format: cell-based; conditions: 0.5 h, 10 µM

Sequence of Metabotropic glutamate receptor 5 (Rattus norvegicus) (P31424 21-1203 limits assumed): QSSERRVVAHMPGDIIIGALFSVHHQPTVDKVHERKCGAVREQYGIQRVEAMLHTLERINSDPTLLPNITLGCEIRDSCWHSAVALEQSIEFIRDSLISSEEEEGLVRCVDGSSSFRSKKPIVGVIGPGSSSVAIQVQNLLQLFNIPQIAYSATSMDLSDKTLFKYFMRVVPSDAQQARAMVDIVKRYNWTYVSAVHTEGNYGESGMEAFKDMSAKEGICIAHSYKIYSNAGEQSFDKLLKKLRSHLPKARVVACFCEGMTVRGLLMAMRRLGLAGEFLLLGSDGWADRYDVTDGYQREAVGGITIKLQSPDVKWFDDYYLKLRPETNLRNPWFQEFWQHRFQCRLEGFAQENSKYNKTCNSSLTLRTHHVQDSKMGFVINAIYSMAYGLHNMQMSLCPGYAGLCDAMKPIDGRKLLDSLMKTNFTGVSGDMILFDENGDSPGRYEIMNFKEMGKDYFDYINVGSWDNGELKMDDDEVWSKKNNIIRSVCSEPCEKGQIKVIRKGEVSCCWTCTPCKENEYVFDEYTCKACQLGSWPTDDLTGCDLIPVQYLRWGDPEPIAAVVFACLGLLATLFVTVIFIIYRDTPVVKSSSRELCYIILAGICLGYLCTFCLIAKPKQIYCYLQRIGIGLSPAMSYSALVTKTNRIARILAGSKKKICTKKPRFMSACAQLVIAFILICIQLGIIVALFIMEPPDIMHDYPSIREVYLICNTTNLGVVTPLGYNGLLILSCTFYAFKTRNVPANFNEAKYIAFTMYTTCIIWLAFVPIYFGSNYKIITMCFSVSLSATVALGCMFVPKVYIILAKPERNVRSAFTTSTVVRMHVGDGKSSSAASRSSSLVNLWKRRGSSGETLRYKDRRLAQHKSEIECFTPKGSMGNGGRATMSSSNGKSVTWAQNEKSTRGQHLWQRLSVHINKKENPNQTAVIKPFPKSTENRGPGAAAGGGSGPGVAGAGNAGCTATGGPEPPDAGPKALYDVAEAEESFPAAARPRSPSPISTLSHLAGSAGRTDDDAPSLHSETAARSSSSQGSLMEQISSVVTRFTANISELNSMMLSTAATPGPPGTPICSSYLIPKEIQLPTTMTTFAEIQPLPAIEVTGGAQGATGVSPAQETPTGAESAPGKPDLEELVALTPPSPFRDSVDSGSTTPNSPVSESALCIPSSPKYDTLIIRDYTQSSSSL
T1 sequence (P08183 whole entry): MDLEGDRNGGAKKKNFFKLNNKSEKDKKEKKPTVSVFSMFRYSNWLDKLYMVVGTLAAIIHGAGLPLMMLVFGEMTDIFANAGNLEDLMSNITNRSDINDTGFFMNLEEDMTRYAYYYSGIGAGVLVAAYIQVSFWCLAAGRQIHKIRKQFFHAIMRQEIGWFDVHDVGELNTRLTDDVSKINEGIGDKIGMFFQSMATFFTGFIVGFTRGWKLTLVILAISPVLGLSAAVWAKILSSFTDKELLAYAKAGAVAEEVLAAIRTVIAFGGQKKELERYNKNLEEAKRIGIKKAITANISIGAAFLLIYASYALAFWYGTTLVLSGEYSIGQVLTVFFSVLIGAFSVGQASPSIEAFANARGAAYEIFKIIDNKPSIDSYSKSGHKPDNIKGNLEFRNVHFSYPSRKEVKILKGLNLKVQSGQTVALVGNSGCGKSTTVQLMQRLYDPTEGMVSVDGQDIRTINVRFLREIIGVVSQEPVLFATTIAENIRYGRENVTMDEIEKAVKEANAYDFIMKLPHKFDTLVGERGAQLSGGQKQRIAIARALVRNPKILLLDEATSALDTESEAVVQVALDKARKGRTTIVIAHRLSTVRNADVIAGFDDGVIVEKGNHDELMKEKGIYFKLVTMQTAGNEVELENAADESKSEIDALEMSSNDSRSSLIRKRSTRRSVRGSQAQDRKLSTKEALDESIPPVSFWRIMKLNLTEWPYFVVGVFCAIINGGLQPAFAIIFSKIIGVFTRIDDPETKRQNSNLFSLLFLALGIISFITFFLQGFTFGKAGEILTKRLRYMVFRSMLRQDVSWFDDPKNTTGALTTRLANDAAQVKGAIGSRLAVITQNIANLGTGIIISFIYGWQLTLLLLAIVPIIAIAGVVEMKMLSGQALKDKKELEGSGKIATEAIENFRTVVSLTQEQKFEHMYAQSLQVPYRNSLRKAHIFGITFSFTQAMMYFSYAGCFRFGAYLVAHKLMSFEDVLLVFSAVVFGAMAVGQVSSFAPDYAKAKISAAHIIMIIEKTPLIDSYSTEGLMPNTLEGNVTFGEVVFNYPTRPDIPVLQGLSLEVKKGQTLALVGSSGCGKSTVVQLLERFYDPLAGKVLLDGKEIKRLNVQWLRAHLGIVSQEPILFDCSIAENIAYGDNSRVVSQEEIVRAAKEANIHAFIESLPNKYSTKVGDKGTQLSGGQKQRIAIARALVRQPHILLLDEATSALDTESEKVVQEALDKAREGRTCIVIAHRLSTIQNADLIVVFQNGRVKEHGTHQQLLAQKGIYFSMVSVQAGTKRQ
Sequence of MDR-1 (P-glycoprotein, ABCB1) (P08183 whole entry): as above

Row | SMILES | IC50 [1] | Ki [2] | IC50 [3] | inhibition at 0.5 h, 10 µM [4] | inhibition (INH) [5] | pIC50 [1]
1 | CCOC(=O)c1c(C)nc(C)c(C(=O)OCC)c1-c1c(-c2ccccc2)noc1C | > 10000 nM | > 10000 nM | > 10000 nM | 36.9% |  | 
2 | CCOC(=O)C1=C(C)NC(C)=C(C(=O)OCc2cn(CCOCCOCCOCCOCCOCCn3cc(COC(=O)C4=C(C)NC(C)=C(C(=O)OCC)C4c4c(-c5ccccc5Br)noc4C)nn3)nn2)C1c1c(-c2ccccc2Br)noc1C (stereo not given) | > 10000 nM | 4860 nM | 2860 nM | 17.7% |  | 
3 | CCOC(=O)C1=C(C)NC(C)=C(C(=O)OCC)C1c1c(-c2ccccc2Br)noc1C | 909 nM | 1520 nM | > 10000 nM | -12% |  | 
4 | CCOC(=O)C1=C(C)NC(C)=C(C(=O)OCc2cn(CCOCCOCCOCCOCCOCCn3cc(COC(=O)C4=C(C)NC(C)=C(C(=O)OCC)C4c4c(-c5cccc(Br)c5)noc4C)nn3)nn2)C1c1c(-c2cccc(Br)c2)noc1C (stereo not given) | 3766 nM | 8640 nM | 1300 nM |  | 150.8% | 
5 | CCOC(=O)C1=C(C)NC(C)=C(C(=O)OCc2cn(CCOCCOCCOCCOCCOCCn3cc(COC(=O)C4=C(C)NC(C)=C(C(=O)OCC)C4c4c(-c5ccc(Br)cc5)noc4C)nn3)nn2)C1c1c(-c2ccc(Br)cc2)noc1C (stereo not given) | 2706 nM | 193 nM | 1390 nM |  | 172.6% | 
6 | CCOC(=O)C1=C(C)NC(C)=C(C(=O)OCC)C1c1c(-c2ccc(Br)cc2)noc1C | 36 nM | > 10000 nM | 3100 nM | 58.4% |  | 7.44

Now from value to compound:

Row | IC50 [1] | Ki [2] | IC50 [3] | inhibition at 0.5 h, 10 µM [4] | inhibition (INH) [5] | pIC50 [1] | SMILES
7 | 603 nM | 933 nM | 1450 nM | 41.9% |  |  | CCOC(=O)C1=C(C)NC(C)=C(C(=O)OCc2cn(CCOCCOCCn3cc(COC(=O)C4=C(C)NC(C)=C(C(=O)OCC)C4c4c(-c5ccc(Br)cc5)noc4C)nn3)nn2)C1c1c(-c2ccc(Br)cc2)noc1C (stereo not given)
8 | > 10000 nM | > 10000 nM | > 10000 nM | 20.4% |  |  | CCOC(=O)C1=C(C)NC(C)=C(C(=O)OCc2cn(CCOCCOCCOCCOCCOCCn3cc(COC(=O)C4=C(C)NC(C)=C(C(=O)OCC)C4c4c(-c5ccccc5)noc4C)nn3)nn2)C1c1c(-c2ccccc2)noc1C (stereo not given)
9 | 127 nM | 1970 nM | 1640 nM | 108% |  |  | CCOC(=O)C1=C(C)NC(C)=C(C(=O)OCc2cn(CCc3ccccc3)nn2)C1c1c(-c2ccc(Br)cc2)noc1C (stereo not given)
10 | 208 nM | > 10000 nM | 510 nM | 102% |  |  | CCOC(=O)C1=C(C)NC(C)=C(C(=O)OCC)C1c1c(-c2cccc(Br)c2)noc1C
11 | 516 nM | 546 nM | 3230 nM | 11.6% |  |  | CCOC(=O)C1=C(C)NC(C)=C(C(=O)OCc2cn(CCOCCOCCOCCn3cc(COC(=O)C4=C(C)NC(C)=C(C(=O)OCC)C4c4c(-c5ccc(Br)cc5)noc4C)nn3)nn2)C1c1c(-c2ccc(Br)cc2)noc1C (stereo not given)
